Legend:
asthma patients = tested on: asthma patients; set-up: method as in PMID 31371445, PMID 10197050; conditions: clinical trial for asthma, abandoned; cited from earlier work
[1] = tested on: Tryptase from a human lung; assay: Kinetic analysis of tryptase inhibition (Lineweaver-Burk plot, Morrison's formula); format: biochemical
Description: (§1) Tryptase from a human lung was purchased from Sigma-Aldrich (St. Louis, MO, USA). The activity of tryptase was measured in 100 mM Tris-HCl buffer, pH 8.0, 100 mM glycerol, 0.02 mg/mL heparin sodium salt and 167 µM N-(p-Tosyl)-Gly-Pro-Lys 4-nitroanilide acetate salt (Sigma-Aldrich) as a substrate. Prior to addition of the substrate, the inhibitor was preincubated with the enzyme for 30 min at room temperature to allow the establishment of the enzyme–inhibitor complex. The substrate was then added, and after incubation for 30 min at 37 °C, the enzyme activity was measured from the increase in absorbance at 415 nm. The assays were performed using a 384-well microplate (CELLSTAR 384-well 781182, Greiner Bio-One, Kremsmünster, Austria) and absorbance was measured using a Powerscan 4 plate reader (DS pharma biomedical, Osaka, Japan). The inhibition ratio was calculated using the following equation: inhibition ratio %=1−AE+S+I−AS−AI+Ablank/AE+S−AS×100
Ki^app was calculated using the Morrison’s formula with GraphPad Prism. The mean value of Km from the kinetic analysis (described in next Section 4.5) was substituted as a constant in the formula.
For kinetic studies of tryptase, inhibition assays were carried out as described in the preceding paragraph. […] The kinetic parameters were calculated by curve fitting using GraphPad Prism.

[2] = molecular target: T1, Trypsin from a hog pancreas (Sus scrofa, UniProt P00761); assay: Measurement of inhibitory activity against trypsin (Bz-L-Arg-pNA substrate, absorbance at 415 nm); format: biochemical
T1 construct: Trypsin from a hog pancreas was purchased from Nacalai Tesque; purchased Nacalai Tesque; host or cells: hog pancreas
T1 sequence (P00761 9-231): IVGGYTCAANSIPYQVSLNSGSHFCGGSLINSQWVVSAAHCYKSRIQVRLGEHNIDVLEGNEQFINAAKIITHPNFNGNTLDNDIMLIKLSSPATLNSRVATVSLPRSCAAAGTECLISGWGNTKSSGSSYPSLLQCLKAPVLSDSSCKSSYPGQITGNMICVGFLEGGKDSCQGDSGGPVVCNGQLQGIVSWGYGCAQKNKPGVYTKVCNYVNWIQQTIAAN
Description: Trypsin from a hog pancreas was purchased from Nacalai Tesque, Kyoto, Japan. The activity of trypsin was measured in 200 mM Tris-HCl buffer, pH 7.8, 20 mM CaCl2 and 385 µM Benzoyl-L-arginine p-nitroanilide monohydrochloride (Bz-L-Arg-pNA·HCl) (Peptide Institute, Osaka, Japan) as a substrate. Prior to addition of the substrate, the inhibitor was preincubated with the enzyme for 10 min at room temperature to allow the establishment of the enzyme–inhibitor complex. The substrate was then added, and after incubation for 60 min at 37 °C, the enzyme activity was measured from the increase in absorbance at 415 nm. The assays were performed using a 384-well microplate and absorbance was measured using a Powerscan 4 plate reader.
(§2) The inhibitory activity against tryptase and the trypsin of leupeptin and PB8GG’ were measured at 0.1–100 µM, along with that of ellagitannins (carpinin B or carpinin E) isolated by our group at 20–50 µM. The inhibitory activity of a combination of various concentrations of PB8GG’ and 50 µM ellagitannins was also assayed.
(§3) Drawing curves of the inhibition and calculation of IC50 were performed by GraphPad Prism (Version 9.5.1).

[3] = molecular target: T2, Tryptase from a human lung (Homo sapiens, UniProt P20231); assay: Measurement of inhibitory activity against tryptase (chromogenic substrate, absorbance at 415 nm); format: biochemical; conditions: for IC50: inhibitor alone, 30 min preincubation, mean ± SE (n = 3)
T2 construct: Tryptase from a human lung was purchased from Sigma-Aldrich; purchased Sigma-Aldrich; host or cells: human lung tissue
T2 sequence (P20231 31-275): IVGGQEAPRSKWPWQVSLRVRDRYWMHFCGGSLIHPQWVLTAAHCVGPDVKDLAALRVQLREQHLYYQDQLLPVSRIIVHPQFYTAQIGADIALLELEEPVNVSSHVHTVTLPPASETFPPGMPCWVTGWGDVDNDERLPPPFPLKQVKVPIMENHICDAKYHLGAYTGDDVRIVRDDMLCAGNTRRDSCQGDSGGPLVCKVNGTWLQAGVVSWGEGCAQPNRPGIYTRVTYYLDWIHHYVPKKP
Description: as §1
A(x): absorbance intensity (415 nm); E: enzyme; S: substrate; I: inhibitor; blank: buffer.
as §2, §3

| mode of inhibition of tryptase ([1]; Lineweaver–Burk plot) | Ki ([1]; Morrison's formula, GraphPad Prism, read-out: inhibition constant Ki app) [µM] | inhibitory activity against trypsin ([2]; tested at 0.1–100 µM) | inhibition of tryptase activity ([3]; at 5 μM) | inhibition of tryptase activity ([3]; at the dose of 1–3 μM) | IC50 [3] [µM] | IC50 ([2]; 10 min preincubation, mean ± SE (n = 3)) [µM] | SMILES | adverse effect in treated patients (asthma patients) |
| --- | --- | --- | --- | --- | --- | --- | --- | --- |
|  |  |  |  |  |  |  | NC(=O)[C@@H]1CCCN1C(=O)[C@H](CCCN=C(N)N)NC(=O)c1ccc2ccccc2c1O [APC-366] | caused bronchospasms |
| mixed-type non-competitive | 5.02 ± 0.99 | little inhibitory activity | clearly inhibited | very weakly inhibited | 7.78 ± 0.17 |  | O=C(O[C@@H]1Cc2c(cc(O)c(C3c4c(O)cc(O)cc4O[C@H](c4ccc(O)c(O)c4)[C@H]3OC(=O)c3cc(O)c(O)c(O)c3)c2O)O[C@@H]1c1ccc(O)c(O)c1)c1cc(O)c(O)c(O)c1 (stereo partly drawn) [PB8GG’, procyanidin B8 3,3′-di-O-gallate] |  |
|  |  |  |  |  | 14.9 ± 1.25 | 8.4 ± 0.31 | CC(=O)N[C@@H](CC(C)C)C(=O)N[C@@H](CC(C)C)C(=O)N[C@H](C=O)CCCNC(=N)N [leupeptin, reference compound] |  |

Reference: paper PMC11944477, “Isolation of Allosteric Tryptase Inhibitor from Methanol Extract of Rhubarb and Enhancement of Its Tryptase Inhibitory Activity by Compounds That Were Screened by In Silico Screening” (Molecules, 2025)
